Tests used:
[1] = system: EP2 mRNA; experiment: EP2 mRNA in vivo in bone tissue (Northern blot); design: species or system rat
[2] = system: EP4 mRNA; experiment: EP4 mRNA levels in vivo in bone tissue (Northern blot); design: species or system rat; settings: tibial diaphysis, five-week-old male rats, 3-6 mg/Kg
From the text: Animal Procedures—For mRNA localization experiments, 5-week old Sprague-Dawley rats (Charles River) are euthanized by CO2, their tibiae and calvariae are excised, cleaned of soft tissues and frozen immediately in liquid nitrogen. […] Animals are euthanized at several time points post-injection and their tibiae and calvariae, as well as samples from lung and kidney tissues are frozen in liquid nitrogen.
Northern Blot Analysis—Total RNA is extracted from the tibial metaphysis or diaphysis and calvaria using a guanidinium isothiocyanate-phenol-chloroform method after pulverizing frozen bone samples by a tissue homogenizer. See P. Chomczynski et al., Single-step method of RNA isolation by acid guanidium thiocyanate-phenol-chloroform extraction., Analyt Biochem, 162, 156-159 (1987), which is incorporated by reference herein in its entirety. RNA samples ([…]) are separated on 0.9% agarose/formaldehyde gels and transferred onto nylon membranes (Boehringer Mannheim, Germany). Membranes are prehybridized in Hybrisol I (Oncor, Gaithersburg, Md.) and 0.5 mg/ml sonicated salmon sperm DNA (Boehringer) at 42° C. for 3 hours and are hybridized at 420C with rat EP2 and mouse EP4 cDNA probes labeled with [^32P]-dCTP (Amersham, Buckinghamshire, UK) by random priming using the rediprime kit (Amersham). […]

[3] = system: EP4 mRNA; experiment: Localization of EP4 mRNA expression in bone tissue (in situ hybridization); format: in vivo, rat; settings: single anabolic dose, rats
Experimental: Animal Procedures—For mRNA localization experiments, 5-week old Sprague-Dawley rats (Charles River) are euthanized by CO2, their tibiae and calvariae are excised, cleaned of soft tissues and frozen immediately in liquid nitrogen. For EP4 regulation experiments, 6-week old rats are given a single injection of either vehicle (7% ethanol in sterile water) or an anabolic dose of PGE2 (Cayman Chemical, Ann Arbor, Mich.), 3-6 mg/kg in the same vehicle) intraperitoneally. Animals are euthanized at several time points post-injection and their tibiae and calvariae, as well as samples from lung and kidney tissues are frozen in liquid nitrogen.
In-Situ Hybridization—Frozen tibiae are sectioned coronally at […] thickness and sections are mounted on charged slides (Probe On Plus, Fisher Scientific, Springfield, N.J.) and are kept at −70° C. until hybridization. cRNA probes are labeled with ^35S-UTPgS ([CN, Costa Mesa, CA) using a Riboprobe II kit (Promega Madison, Wis.). Hybridization is performed overnight at 50° C. […]
Localization of EP4 mRNA expression in bone tissue—In situ hybridization is used in order to localize cells expressing EP4 in bone. In control experiment (vehicle-injected) rats, low expression of EP4 is detected in bone marrow cells. […]

[4] = system: intracellular cAMP; experiment: Intracellular cAMP in osteoblastic cell lines; format: cell-based, rat
Experimental: (§1) Cell Cultures—RP-1 periosteal cells are spontaneously immortalized from primary cultures of periosteal cells from tibae of 4-week old Sprague-Dawley rats and are cultured in DMEM (BRL, Gaithersburg, Md.) with 10% fetal bovine serum (JRP Biosciences, Lenexa, KS). […] RCT-1 and RCT-3 are clonal cell lines immortalized by SV40 large T antigen from cells released from fetal rat calvair by a cmbination collagenase/hyaluronidase digestion. RCT-1 cells, derived from cells released during the first 10 minutes of digestion (fraction I), are cultured in RPMI 1640 medium (BRL) with 10% fetal bovine serum and 0.4 mg/ml G418 (BRL). These cells differentiate and express osteoblastic features upon retinoic acid treatment. RCT-3 cells, immortalized from osteoblast-enriched fraction m cells, are cultured in F-12 medium (BRL) with 5% Fetal bovine serum and 0.4 mg/ml G418. TRAB-11 cells are also immortalized by SV40 large T antigen from adult rat tibia and are cultured in RPMI 1640 medium with 10% FBS and 0.4 mg/ml G418. ROS 17/12.8 rat osteosarcoma cells are cultured in F-12 containing 5% PBS. Osteoblast-enriched (fraction III) primary fetal rat calvaria cells are obtained by collagenase/hyaluronidase digestion of calvariae of 19 day-old rat fetuses. See Rodan et al., Growth stimulation of rat calvaria osteoblastic cells by acidic FGF, Endocrinology, 121, 1919-1923 (1987), which is incorporated by reference herein in its entirety. Cells are released during 30-50 minutes digestion (fraction III) and are cultured in F-12 medium containing 5% FBS. P815 (mouse mastocytoma) cells, cultured in Eagles MEM with 10% FBS, and NRK (normal rat kidney fibroblasts) cells, cultured in DMEM with 10% […], are used as positive and negative controls for the expression of EP4, respectively. See Abramovitz et al., Human prostanoid receptors: cloning and characterization. In: Samulesson B. et al. ed) Advances in prostaglandin, Thrombosznes and leukotriene research, vol. […]

[5] = system: EP2 mRNA; experiment: EP2 mRNA in RP-1 periosteal cells (Northern blot); format: cell-based, rat; settings: RP-1 cells
Experimental: Cell Cultures—RP-1 periosteal cells are spontaneously immortalized from primary cultures of periosteal cells from tibae of 4-week old Sprague-Dawley rats and are cultured in DMEM (BRL, Gaithersburg, Md.) with 10% fetal bovine serum (JRP Biosciences, Lenexa, KS). […] RCT-1 and RCT-3 are clonal cell lines immortalized by SV40 large T antigen from cells released from fetal rat calvair by a cmbination collagenase/hyaluronidase digestion. RCT-1 cells, derived from cells released during the first 10 minutes of digestion (fraction I), are cultured in RPMI 1640 medium (BRL) with 10% fetal bovine serum and 0.4 mg/ml G418 (BRL). These cells differentiate and express osteoblastic features upon retinoic acid treatment. RCT-3 cells, immortalized from osteoblast-enriched fraction m cells, are cultured in F-12 medium (BRL) with 5% Fetal bovine serum and 0.4 mg/ml G418. TRAB-11 cells are also immortalized by SV40 large T antigen from adult rat tibia and are cultured in RPMI 1640 medium with 10% FBS and 0.4 mg/ml G418. ROS 17/12.8 rat osteosarcoma cells are cultured in F-12 containing 5% PBS. Osteoblast-enriched (fraction III) primary fetal rat calvaria cells are obtained by collagenase/hyaluronidase digestion of calvariae of 19 day-old rat fetuses. […]

[6] = system: EP4 mRNA; experiment: EP4 mRNA levels in bone derived cell lines (Northern blot); format: cell-based, rat
Experimental: as §1

CCCCC[C@H](O)/C=C/[C@H]1[C@H](O)CC(=O)[C@@H]1C/C=C\CCCC(=O)O [PGE2]
induction of EP2 mRNA [1]: does not induce
time of peak of EP4 mRNA levels after injection [2]: 2 h
EP4 mRNA levels ([2]; systemic): rapidly increased
expression of EP4 in bone marrow cells [3]: increased
effect on intracellular cAMP ([4]; RCT-3 cells): markedly induced
effect on intracellular cAMP ([4]; ROS 17/2.8 cells): no effect
effect on intracellular cAMP ([4]; TRAB-11 cells): markedly induced
induction of EP2 mRNA [5]: does not induce
EP4 mRNA levels ([6]; RCT-3 cells): no effect
EP4 mRNA levels ([6]; RP-1 periosteal cells, 10^-6 M): rapidly increases
time of peak of EP4 mRNA levels after treatment ([6]; RP-1 periosteal cells, 10^-6 M): 2 h

Reference: patent publication US20060167081A1, “Ep4 receptor agonists” (priority 2002, published 2006)
